# Measured values: US6503881B2 (priority 1996, dated 2003)
# Where two headings read alike, the source gives them in different places.
# What was measured:
# E. faecium = type: cell-based; conditions: for MBI 26 MIC, +Teicoplanin: in combination with teicoplanin; for MIC in combination: Teicoplanin + MBI 26
# P. aeruginosa = type: cell-based
# A. calcoaceticus = assay: Overcoming inherent resistance, MIC alone and in combination (agarose dilution); type: cell-based; conditions: A. calcoaceticus AC001
# K. pneumoniae = type: cell-based; conditions: for MIC Alone: agent alone; for MBI 26 MIC, +Erythro.: in combination with erythromycin
# E. faecalis = type: cell-based; conditions: for MBI 26 MIC, +Teicoplanin: in combination with teicoplanin; for MIC in combination: Teicoplanin + MBI 26
# a bacterial strain = type: cell-based
substance,measurement,setting,value
KWKSFIKKLTSAAKKVVTTAKPLISS [MBI 26],MIC Alone,"E. faecium; E. faecium 97001 VanB, agent alone",64 µg/mL
same,"MBI 26 MIC, +Teicoplanin",E. faecium; E. faecium 97001 VanB,4 µg/mL
same,MIC Alone,"E. faecium; E. faecium 97002 VanB, agent alone",64 µg/mL
same,"MBI 26 MIC, +Teicoplanin",E. faecium; E. faecium 97002 VanB,1 µg/mL
same,MIC Alone,"E. faecium; E. faecium 97003 VanB, agent alone",64 µg/mL
same,"MBI 26 MIC, +Teicoplanin",E. faecium; E. faecium 97003 VanB,1 µg/mL
same,MIC Alone,"E. faecium; E. faecium 97005 VanB, agent alone",64 µg/mL
same,"MBI 26 MIC, +Teicoplanin",E. faecium; E. faecium 97005 VanB,2 µg/mL
same,MIC Alone,"E. faecium; E. faecium 97006 VanB, agent alone",64 µg/mL
same,"MBI 26 MIC, +Teicoplanin",E. faecium; E. faecium 97006 VanB,4 µg/mL
same,MIC Alone,"E. faecium; E. faecium 97007 VanB, agent alone",64 µg/mL
same,"MBI 26 MIC, +Teicoplanin",E. faecium; E. faecium 97007 VanB,1 µg/mL
same,MIC Alone,"E. faecium; E. faecium 97008 VanB, agent alone",64 µg/mL
same,"MBI 26 MIC, +Teicoplanin",E. faecium; E. faecium 97008 VanB,4 µg/mL
same,MIC Alone,"E. faecium; E. faecium 97009 VanB, agent alone",32 µg/mL
same,"MBI 26 MIC, +Teicoplanin",E. faecium; E. faecium 97009 VanB,1 µg/mL
same,MIC Alone,"E. faecium; E. faecium 97010 VanB, agent alone",64 µg/mL
same,"MBI 26 MIC, +Teicoplanin",E. faecium; E. faecium 97010 VanB,4 µg/mL
same,MIC Alone,"E. faecium; E. faecium 97011 VanB, agent alone",64 µg/mL
same,"MBI 26 MIC, +Teicoplanin",E. faecium; E. faecium 97011 VanB,4 µg/mL
same,MIC Alone,"E. faecium; E. faecium 97012 VanB, agent alone",64 µg/mL
same,"MBI 26 MIC, +Teicoplanin",E. faecium; E. faecium 97012 VanB,4 µg/mL
same,MIC Alone,"E. faecium; E. faecium 97013 VanB, agent alone",64 µg/mL
same,"MBI 26 MIC, +Teicoplanin",E. faecium; E. faecium 97013 VanB,8 µg/mL
same,MIC Alone,"E. faecium; E. faecium 97014 VanB, agent alone",32 µg/mL
same,"MBI 26 MIC, +Teicoplanin",E. faecium; E. faecium 97014 VanB,4 µg/mL
same,MIC Alone,"E. faecium; E. faecium 97015 VanB, agent alone",64 µg/mL
same,"MBI 26 MIC, +Teicoplanin",E. faecium; E. faecium 97015 VanB,4 µg/mL
same,MIC Alone,"E. faecium; E. faecium 97016 VanB, agent alone",64 µg/mL
same,"MBI 26 MIC, +Teicoplanin",E. faecium; E. faecium 97016 VanB,4 µg/mL
same,MIC Alone,E. faecium; E. faecium 97017 VanA,64 µg/mL
same,MIC in combination,E. faecium; E. faecium 97017 VanA,4 µg/mL
same,MIC Alone,E. faecium; E. faecium 97018 VanA,64 µg/mL
same,MIC in combination,E. faecium; E. faecium 97018 VanA,8 µg/mL
same,MIC Alone,E. faecium; E. faecium 97019 VanA,64 µg/mL
same,MIC in combination,E. faecium; E. faecium 97019 VanA,16 µg/mL
same,MIC Alone,E. faecium; E. faecium 97020 VanA,64 µg/mL
same,MIC in combination,E. faecium; E. faecium 97020 VanA,16 µg/mL
same,MIC Alone,E. faecium; E. faecium 97021 VanA,64 µg/mL
same,MIC in combination,E. faecium; E. faecium 97021 VanA,32 µg/mL
same,MIC Alone,E. faecium; E. faecium 97022 VanA,64 µg/mL
same,MIC in combination,E. faecium; E. faecium 97022 VanA,4 µg/mL
same,MIC Alone,E. faecium; E. faecium 97023 VanA,64 µg/mL
same,MIC in combination,E. faecium; E. faecium 97023 VanA,4 µg/mL
same,MIC Alone,E. faecium; E. faecium 97024 VanA,64 µg/mL
same,MIC in combination,E. faecium; E. faecium 97024 VanA,8 µg/mL
same,MIC Alone,E. faecium; E. faecium 97025 VanA,16 µg/mL
same,MIC in combination,E. faecium; E. faecium 97025 VanA,4 µg/mL
same,MIC Alone,E. faecium; E. faecium 97026 VanA,64 µg/mL
same,MIC in combination,E. faecium; E. faecium 97026 VanA,16 µg/mL
same,MIC Alone,E. faecium; E. faecium 97027 VanA,64 µg/mL
same,MIC in combination,E. faecium; E. faecium 97027 VanA,8 µg/mL
same,MIC Alone,E. faecium; E. faecium 97028 VanA,8 µg/mL
same,MIC in combination,E. faecium; E. faecium 97028 VanA,8 µg/mL
same,MIC Alone,E. faecium; E. faecium 97029 VanA,64 µg/mL
same,MIC in combination,E. faecium; E. faecium 97029 VanA,8 µg/mL
same,MIC Alone,E. faecium; E. faecium 97030 VanA,64 µg/mL
same,MIC in combination,E. faecium; E. faecium 97030 VanA,32 µg/mL
same,MIC Alone,E. faecium; E. faecium 97031 VanA,64 µg/mL
same,MIC in combination,E. faecium; E. faecium 97031 VanA,32 µg/mL
same,MIC Alone,E. faecium; E. faecium 97032 VanA,64 µg/mL
same,MIC in combination,E. faecium; E. faecium 97032 VanA,8 µg/mL
same,MIC Alone,E. faecium; E. faecium 97033 VanA,64 µg/mL
same,MIC in combination,E. faecium; E. faecium 97033 VanA,8 µg/mL
same,MIC Alone,E. faecium; E. faecium 97034 VanA,64 µg/mL
same,MIC in combination,E. faecium; E. faecium 97034 VanA,8 µg/mL
same,MIC Alone,E. faecium; E. faecium 97035 VanA,64 µg/mL
same,MIC in combination,E. faecium; E. faecium 97035 VanA,0.5 µg/mL
same,MIC Alone,E. faecium; E. faecium 97036 VanA,8 µg/mL
same,MIC in combination,E. faecium; E. faecium 97036 VanA,4 µg/mL
same,MIC in combination,"P. aeruginosa; P. aeruginosa PA024, pair Ceftriaxone / MBI 26",32 µg/mL
same,MIC Alone,"P. aeruginosa; P. aeruginosa PA041, agent alone",64 µg/mL
same,"MBI 26 MIC, +Erythro.","P. aeruginosa; P. aeruginosa PA041, in combination with erythromycin",32 µg/mL
same,MIC Alone,A. calcoaceticus; agent alone,16 µg/mL
same,"MBI 26 MIC, +Erythro.",A. calcoaceticus; in combination with erythromycin,8 µg/mL
same,MIC Alone,K. pneumoniae; K. pneumoniae KP001,16 µg/mL
same,"MBI 26 MIC, +Erythro.",K. pneumoniae; K. pneumoniae KP001,8 µg/mL
same,MIC Alone,K. pneumoniae; K. pneumoniae KP002,64 µg/mL
same,"MBI 26 MIC, +Erythro.",K. pneumoniae; K. pneumoniae KP002,32 µg/mL
same,MIC Alone,"E. faecalis; E. faecalis 97040 VanB, agent alone",64 µg/mL
same,"MBI 26 MIC, +Teicoplanin",E. faecalis; E. faecalis 97040 VanB,8 µg/mL
same,MIC Alone,"E. faecalis; E. faecalis 97041 VanB, agent alone",64 µg/mL
same,"MBI 26 MIC, +Teicoplanin",E. faecalis; E. faecalis 97041 VanB,8 µg/mL
same,MIC Alone,"E. faecalis; E. faecalis 97042 VanB, agent alone",64 µg/mL
same,"MBI 26 MIC, +Teicoplanin",E. faecalis; E. faecalis 97042 VanB,8 µg/mL
same,MIC Alone,"E. faecalis; E. faecalis 97043 VanB, agent alone",64 µg/mL
same,"MBI 26 MIC, +Teicoplanin",E. faecalis; E. faecalis 97043 VanB,8 µg/mL
same,MIC Alone,E. faecalis; E. faecalis 97050 VanA,64 µg/mL
same,MIC in combination,E. faecalis; E. faecalis 97050 VanA,8 µg/mL
same,MIC Alone,E. faecalis; E. faecalis 97051 VanA,64 µg/mL
same,MIC in combination,E. faecalis; E. faecalis 97051 VanA,8 µg/mL
same,MIC Alone,E. faecalis; E. faecalis 97052 VanA,64 µg/mL
same,MIC in combination,E. faecalis; E. faecalis 97052 VanA,8 µg/mL
same,MIC Alone,E. faecalis; E. faecalis 97053 VanA,64 µg/mL
same,MIC in combination,E. faecalis; E. faecalis 97053 VanA,8 µg/mL
same,MIC Alone,E. faecalis; E. faecalis 97054 VanA,64 µg/mL
same,MIC in combination,E. faecalis; E. faecalis 97054 VanA,8 µg/mL
same,MIC Alone,E. faecalis; E. faecalis 97055 VanA,64 µg/mL
same,MIC in combination,E. faecalis; E. faecalis 97055 VanA,8 µg/mL
same,killing in time kill assay,a bacterial strain,greater killing than either peptide or antibiotic agent alone
W R I W K P K W R L P K W [MBI 11D18CN],MIC,bacteria; A. calcoaceticus AC003,32 µg/mL
same,MIC,bacteria; E. cloacae ECL009,64 µg/mL
same,MIC,"bacteria; E. coli ATCC 25922, agarose dilution assay",16 µg/mL
same,MIC,bacteria; E. coli ECO002,4 µg/mL
same,MIC,"bacteria; E. coli ESS, agarose dilution assay",2 µg/mL
same,MIC,"bacteria; E. coli NCTC 10418, agarose dilution assay",2 µg/mL
same,MIC,bacteria; E. faecalis EFS002,32 µg/mL
same,MIC,"bacteria; E. faecium ATCC 29212, agarose dilution assay",8 µg/mL
same,MIC,bacteria; E. faecium EFM003,2 µg/mL
same,MIC,bacteria; H. influenzae HIN002,>128 µg/mL
same,MIC,bacteria; K. pneumoniae KP002,64 µg/mL
same,MIC,"bacteria; P. aeruginosa ATCC 27853, agarose dilution assay",128 µg/mL
same,MIC,"bacteria; P. aeruginosa NCTC 10662, agarose dilution assay",128 µg/mL
same,MIC,bacteria; P. aeruginosa PA006,>128 µg/mL
same,MIC,bacteria; P. mirabilis PM003,>128 µg/mL
same,MIC,"bacteria; P. vulgaris ATCC 13315, agarose dilution assay",32 µg/mL
same,MIC,bacteria; P. vulgaris SBPV1,32 µg/mL
same,MIC,"bacteria; S. aureus ATCC 29213, agarose dilution assay",0.5 µg/mL
same,MIC,"bacteria; S. aureus MRSA9, agarose dilution assay",2 µg/mL
same,MIC,"bacteria; S. aureus MRSA13, agarose dilution assay",8 µg/mL
same,MIC,"bacteria; S. aureus MRSA17, agarose dilution assay",2 µg/mL
same,MIC,bacteria; S. aureus SA010,4 µg/mL
same,MIC,"bacteria; S. aureus SA206, agarose dilution assay",4 µg/mL
same,MIC,bacteria; S. epidermidis SE010,2 µg/mL
same,MIC,bacteria; S. maltophilia SMA003,16 µg/mL
same,MIC,bacteria; S. marcescens SBSM2,>128 µg/mL
same,MIC,"bacteria; S. marcescens SM76, agarose dilution assay",>128 µg/mL
same,MIC,"bacteria; S. marcescens SM82, agarose dilution assay",>128 µg/mL
same,MIC,"bacteria; S. pneumoniae 406LE8, agarose dilution assay",64 µg/mL
same,MIC,"bacteria; S. pneumoniae 60120, agarose dilution assay",128 µg/mL
same,MIC,"bacteria; S. pneumoniae ATCC 49619, agarose dilution assay",64 µg/mL
same,MIC,bacteria; S. pneumoniae SBSPN3,64 µg/mL
same,MIC,bacteria; S. pyogenes SPY003,32 µg/mL
